Assay results reported in patent US9840478B2 (MERCK SHARP & DOHME CORP., priority 2013, dated 2017).

What follows are compounds tested on HIV-1 (H9IIIB strain) (assay: Cell-based HIV infection assay using a reporter (Cell-Based), MT4-GFP cells). Settings: Human immunodeficiency virus 1, MT4-GFP cells infected with HIV-1 H9IIIB; 50% normal human serum; mean of at least two independent experiments; read-out: Cell-based IP.
Summary of the method: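 IC50 from 4-parameter dose-response of % viral growth inhibition, using the 48 h/24 h infected-cell ratio scaled between DMSO and a protease/integrase/NNRTI triple-drug control. Assay used MT4 cells with HIV-LTR-GFP reporter, pre-infected 24 h with HIV-1 H9IIIB, in 50% normal human serum.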

In order of rising IC50:
1. O=C(C[C@@H](c1ccc(F)cc1)c1cc(F)cc(F)c1)Nc1cncc(F)c1CC[C@H]1CNCCN1S(=O)(=O)c1ccccn1 [Example 304, (3S)-3-(3,5-difluorophenyl)-3-(4-fluorophenyl)-N-(5-fluoro-4-{2-[(2S)-1-(pyridin-2-ylsulfonyl)piperazin-2-yl]ethyl}pyridin-3-yl)propanamide]  3.6 nM
2. COC(=O)N[C@H](C(=O)Nc1cccc(F)c1CC[C@H]1CNC[C@H](C)N1S(=O)(=O)c1ccccc1)[C@@H](c1ccc(F)c(F)c1)C1CCOCC1 [Example 295, (βR)-3,4-difluoro-N-(3-fluoro-2-{2-[(2S,6S)-6-methyl-1-(phenylsulfonyl)piperazin-2-yl]ethyl}phenyl)-Nα-(methoxycarbonyl)-β-(tetrahydro-2H-pyran-4-yl)-L-phenylalaninamide]  4.2 nM
3. Cn1ccc(S(=O)(=O)N2CCNC[C@@H]2CCc2c(F)cncc2NC(=O)C[C@@H](c2ccc(F)cc2)c2cc(F)cc(F)c2)n1 [Example 306, (3S)-3-(3,5-difluorophenyl)-N-[5-fluoro-4-(2-{(2S)-1-[(1-methyl-1H-pyrazol-3-yl)sulfonyl]piperazin-2-yl}ethyl)pyridin-3-yl]-3-(4-fluorophenyl)propanamide]  6.5 nM
4. O=C(C[C@@H](c1ccc(F)cc1)c1cc(F)cc(F)c1)Nc1cncc(F)c1CC[C@H]1CNCCN1S(=O)(=O)c1cccnc1 [Example 305, (3S)-3-(3,5-difluorophenyl)-3-(4-fluorophenyl)-N-(5-fluoro-4-{2-[(2S)-1-(pyridin-3-ylsulfonyl)piperazin-2-yl]ethyl}pyridin-3-yl)propanamide]  8.2 nM
5. COC(=O)N[C@H](C(=O)Nc1cccc(F)c1CC[C@H]1CNC[C@@H](C)N1S(=O)(=O)c1ccccc1)[C@@H](c1ccc(F)c(F)c1)C1CCOCC1 [Example 293, (βR)-3,4-difluoro-N-(3-fluoro-2-{2-[(2S,6R)-6-methyl-1-(phenylsulfonyl)piperazin-2-yl]ethyl}phenyl)-Nα-(methoxycarbonyl)-β-(tetrahydro-2H-pyran-4-yl)-L-phenylalaninamide]  8.7 nM
6. O=C(C[C@@H](c1ccc(F)cc1)c1cc(F)cc(F)c1)Nc1cncc(F)c1CC[C@H]1CNCCN1S(=O)(=O)c1ccc(OC(F)(F)F)cc1 [Example 314, (3S)-3-(3,5-difluorophenyl)-3-(4-fluorophenyl)-N-(5-fluoro-4-{2-[(2S)-1-{[4-(trifluoromethoxy)phenyl]sulfonyl}piperazin-2-yl]ethyl}pyridin-3-yl)propanamide]  9.2 nM
7. COC(=O)N[C@H](C(=O)Nc1cccc(F)c1CC[C@H]1CNC[C@H](C)N1S(=O)(=O)c1ccccc1)[C@@H](c1cc(F)cc(F)c1)C1CCOCC1 [Example 296, (βR)-3,5-difluoro-N-(3-fluoro-2-{2-[(2S,6S)-6-methyl-1-(phenylsulfonyl)piperazin-2-yl]ethyl}phenyl)-Nα-(methoxycarbonyl)-β-(tetrahydro-2H-pyran-4-yl)-L-phenylalaninamide]  9.9 nM
8. COC(=O)N[C@H](C(=O)Nc1cccc(F)c1CC[C@H]1CNC[C@H](C)N1S(=O)(=O)c1ccccc1)C1(c2ccc(F)c(F)c2)CCOCC1 [Example 297, methyl {(1S)-1-[4-(3,4-difluorophenyl)tetrahydro-2H-pyran-4-yl]-2-[(3-fluoro-2-{2-[(2S,6S)-6-methyl-1-(phenylsulfonyl)piperazin-2-yl]ethyl}phenyl)amino]-2-oxoethyl}carbamate]  16 nM
9. Cn1cc(S(=O)(=O)N2CCNC[C@@H]2CCc2c(F)cncc2NC(=O)C[C@@H](c2ccc(F)cc2)c2cc(F)cc(F)c2)cn1 [Example 316, (3S)-3-(3,5-difluorophenyl)-N-[5-fluoro-4-(2-{(2S)-1-[(1-methyl-1H-pyrazol-4-yl)sulfonyl]piperazin-2-yl}ethyl)pyridin-3-yl]-3-(4-fluorophenyl)propanamide]  19 nM
10. O=C(C[C@@H](c1ccc(F)cc1)c1cc(F)cc(F)c1)Nc1cncc(F)c1CC[C@H]1CNCCN1S(=O)(=O)c1ccc(-c2ccccn2)s1 [Example 311, (3S)-3-(3,5-difluorophenyl)-3-(4-fluorophenyl)-N-[5-fluoro-4-(2-{(2S)-1-[(5-pyridin-2-ylthiophen-2-yl)sulfonyl]piperazin-2-yl}ethyl)pyridin-3-yl]propanamide]  20 nM
11. O=C(C[C@@H](c1ccc(F)cc1)c1cc(F)cc(F)c1)Nc1cncc(F)c1CC[C@H]1CNCCN1S(=O)(=O)CC1CC1 [Example 302, (3S)-N-[4-(2-{(2S)-1-[(cyclopropylmethyl)sul-fonyl]piperazin-2-yl}ethyl)-5-fluoropyridin-3-yl]-3-(3,5-difluorophenyl)-3-(4-fluorophenyl)propanamide]  24 nM
12. CCCS(=O)(=O)N1CCNC[C@@H]1CCc1c(F)cncc1NC(=O)C[C@@H](c1ccc(F)cc1)c1cc(F)cc(F)c1 [Example 317, (3S)-3-(3,5-difluorophenyl)-3-(4-fluorophenyl)-N-(5-fluoro-4-{2-[(2S)-1-(propylsulfonyl)piperazin-2-yl]ethyl}pyridin-3-yl)propanamide]  24 nM
13. C[C@@H]1CNC[C@H](CCc2c(F)cncc2NC(=O)[C@@H](N)[C@@H](c2ccc(Cl)cc2)C2CCOCC2)N1S(=O)(=O)c1ccc(Cl)cc1 [Example 298, (βR)-4-chloro-N-[4-(2-{(2S,6R)-1-[(4-chlorophenyl)sulfonyl]-6-methylpiperazin-2-yl}ethyl)-5-fluoropyridin-3-yl]-β-(tetrahydro-2H-pyran-4-yl)-L-phenylalaninamide]  36 nM
14. C[C@H]1CNC[C@H](CCc2c(F)cccc2NC(=O)[C@@H](N)[C@@H](c2cc(F)cc(F)c2)C2CCOCC2)N1S(=O)(=O)c1ccccc1 [Example 294, (βR)-3,5-difluoro-N-(3-fluoro-2-{2-[(2S,6S)-6-methyl-1-(phenylsulfonyl)piperazin-2-yl]ethyl}phenyl)-β-(tetrahydro-2H-pyran-4-yl)-L-phenylalaninamide]  40 nM
15. CS(=O)(=O)c1ccc(S(=O)(=O)N2CCNC[C@@H]2CCc2c(F)cncc2NC(=O)C[C@@H](c2ccc(F)cc2)c2cc(F)cc(F)c2)cc1 [Example 313, (3S)-3-(3,5-difluorophenyl)-N-(5-fluoro-4-{2-[(2S)-1-{[4-(methylsulfonyl)phenyl]sulfonyl}piperazin-2-yl]ethyl}pyridin-3-yl)-3-(4-fluorophenyl)propanamide]  48 nM
16. C[C@@H]1C[C@](c2ccc(Cl)cc2)([C@H](N)C(=O)Nc2cccc(F)c2CC[C@H]2CNC[C@H](C)N2S(=O)(=O)c2ccccc2)C[C@H](C)O1 [Example 300, (S)-2-amino-2-((2R,4r,6S)-4-(4-chlorophenyl)-2,6-dimethyltetrahydro-2H-pyran-4-yl)-N-(3-fluoro-2-(2-((2S,6S)-6-methyl-1-(phenylsulfonyl)piperazin-2-yl)ethyl)phenyl)acetamide]  98 nM
17. Nc1ccc(S(=O)(=O)N2CCNC[C@@H]2CCc2c(F)cncc2NC(=O)C[C@@H](c2ccc(F)cc2)c2cc(F)cc(F)c2)cn1 [Example 307, (3S)-N-[4-(2-{(2S)-1-[(6-aminopyridin-3-yl)sulfonyl]piperazin-2-yl}ethyl)-5-fluoropyridin-3-yl]-3-(3,5-difluorophenyl)-3-(4-fluorophenyl)propanamide]  130 nM
18. CC(=O)Nc1nc(S(=O)(=O)N2CCNC[C@@H]2CCc2c(F)cncc2NC(=O)C[C@@H](c2ccc(F)cc2)c2cc(F)cc(F)c2)c(C)s1 [Example 309, (3S)-N-(4-{2-[(2S)-1-{[2-(acetylamino)-5-methyl-1,3-thiazol-4-yl]sulfonyl}piperazin-2-yl]ethyl}-5-fluoropyridin-3-yl)-3-(3,5-difluorophenyl)-3-(4-fluorophenyl)propanmide]  140 nM
19. CCOC(=O)c1nc(-c2ccc(S(=O)(=O)N3CCNC[C@@H]3CCc3c(F)cncc3NC(=O)C[C@@H](c3ccc(F)cc3)c3cc(F)cc(F)c3)s2)no1 [Example 312, ethyl 3-[5-({(2S)-2-[2-(3-{[(3S)-3-(3,5-difluorophenyl)-3-(4-fluorophenyl)propanoyl]amino}-5-fluoropyridin-4-yl)ethyl]piperazin-1-yl}sulfonyl)thiophen-2-yl]-1,2,4-oxadiazole-5-carboxylate]  140 nM
20. O=C1COc2ccc(S(=O)(=O)N3CCNC[C@@H]3CCc3c(F)cncc3NC(=O)C[C@@H](c3ccc(F)cc3)c3cc(F)cc(F)c3)cc2N1 [Example 308, (3S)-3-(3,5-difluorophenyl)-N-[5-fluoro-4-(2-{(2S)-1-[(3-oxo-3,4-dihydro-2H-1,4-benzoxazin-6-yl)sulfonyl]piperazin-2-yl}ethyl)pyridin-3-yl]-3-(4-fluorophenyl)propanamide]  180 nM
21. C[C@@H]1C[C@](c2ccc(Cl)cc2)([C@H](N)C(=O)Nc2cccc(F)c2CC[C@H]2CNC[C@@H](C)N2S(=O)(=O)c2ccccc2)C[C@H](C)O1 [Example 301, (S)-2-amino-2-((2R,4r,6S)-4-(4-chlorophenyl)-2,6-dimethytetrahydro-2H-pyran-4-yl)-N-(3-fluoro-2-(2-((2S,6R)-6-methyl-1-(phenylsulfonyl)piperazin-2-yl)ethyl)phenyl)acetamide]  480 nM
22. O=C(C[C@@H](c1ccc(F)cc1)c1cc(F)cc(F)c1)Nc1cncc(F)c1CC[C@H]1CNCCN1S(=O)(=O)Cc1ccc(C(F)(F)F)cc1 [Example 310, (3S)-3-(3,5-difluorophenyl)-3-(4-fluorophenyl)-N-(5-fluoro-4-{2-[(2S)-1-{[4-(trifluoromethyl)benzyl]sulfonyl}piperazin-2-yl]ethyl}pyridin-3-yl)propanamide]  1700 nM
23. O=C(C[C@@H](c1ccc(F)cc1)c1cc(F)cc(F)c1)Nc1cncc(F)c1CC[C@H]1CNCCN1S(=O)(=O)CC(F)(F)F [Example 315, (3S)-3-(3,5-difluorophenyl)-3-(4-fluorophenyl)-N-[5-fluoro-4-(2-{(2S)-1-[(2,2,2-trifluoroethyl)sulfonyl]piperazin-2-yl}ethyl)pyridin-3-yl]propanamide]  1900 nM
